# Assay results published in patent US6166076A, “Taste enhancing food additives” (Board of Supervisors of Louisiana State University and …, priority 1997, dated 2000).
# What was measured:
# [1] = system: inactivating A-type K^+ channels (IA); assay: whole-cell patch clamp, inactivating A-type K^+ current (IA) in rat fungiform taste receptor cells; assay type: cell-based, rat (Sprague-Dawley); conditions: 4-AP 10 mM; in presence of arachidonic acid; n=10 cells
# Experimental: (§1) Voltage-activated currents were recorded from individual taste receptor cells maintained in the taste bud using the whole-cell patch clamp configuration, as generally described in Hamill et al., "Improved Patch-clamp Techniques for High-resolution Current Recording from Cells and Cell-free Membrane Patches," Pflugers Arch., Vol. 391, pp. 85-100 (1981). […]
# (§2) Typical seal resistances on TRC membranes ranged from […] to greater than 50 G.OMEGA.. […] Commands were delivered and data recorded using pCLAMP software (version 6.0.3) interfaced to an AxoPatch 200A amplifier with a Digidata 1200A A-D board (Axon Instruments, Foster City, Calif.). […]
# (§3) For analysis, currents during FFA application were averaged over a consistent time range corresponding to the steady-state condition, and were compared to currents in control (Tyrode's) solution. […] For analysis of delayed rectifying K^+ channels, currents were measured at command potentials of +40 mV during steady-state; inwardly rectifying currents, when investigated, were measured at -130 mV. Significant effects of FFAs on K^+ currents were determined by paired Student's t tests (α=0.05) compared to control currents immediately preceding the test stimulus. […]
# [2] = system: delayed rectifier K^+ channel; assay: whole-cell patch clamp, delayed rectifier K^+ channel (steady-state outward K^+ current at +40 mV) in rat fungiform taste receptor cells; assay type: cell-based, rat (Sprague-Dawley)
# Source text: (§4) The effects of free fatty acids ("FFAs") on taste buds isolated from rat fungiform papillae were examined to determine if a chemosensory (i.e. non-textural) cue for fats is located in the mouth. The methods used to isolate TRCs were generally as described in Behe et al., "Membrane Currents in Taste Cells of the Rat Fungiform Papilla: Evidence for Two Types of Ca Currents and Inhibition of K Currents by Saccharin," Journal of General Physiology, Vol. 96, pp. 1061-1084 (1990); Doolin et al., "Distribution and Characterization of Functional Amiloride-sensitive Sodium Channels in Rat Tongue," Journal of General Physiology, Vol. 107. pp. 545-554 (1996); and Gilbertson et al., "Proton Currents Through Amiloride-sensitive Na^+ Channels in Isolated Hamster Taste Cells: Enhancement by Vasopressin and cAMP," Neuron, Vol. 10, pp. 931-942 (1993).
# (§5) Individual fungiform taste buds were isolated from the tongues of 2- to 5-month-old male Sprague-Dawley rats (Harlan Sprague Dawley, Indianapolis,Ind.). Animals were housed individually in polycarbonate cages with food (Purina #5001, Purina Mills, St. Louis, Mo.) provided ad lib. The room containing the rats was maintained at 21-23° C. on a 0700-1900 h light-dark cycle. All animal care and experimental procedures were in accordance with National Institutes of Health guidelines, and were approved by the Institutional Animal Care and Use Committee of the Pennington Biomedical Research Center.
# (§6) Tongues were removed from euthanized rats, and were immediately placed in ice-cold Tyrode's solution. To remove the lingual epithelium containing the taste buds from the underlying muscle layer, approximately 1.0 ml of Tyrode's solution containing 0.3 mg/ml collagenase A (Boehringer Mannheim Corp., Indianapolis, Ind.), 2.5 mg/ml dispase (grade II; Boehringer Mannheim) and 1.0 mg/ml trypsin inhibitor (type I-S; Sigma Chemical Co., St. Louis, Mo.) was injected below the epithelium. The injected tongue was placed in Ca--Mg free Tyrode's solution and bubbled with O2 for 33-35 min. The lingual epithelium was removed and pinned serosal side up, allowing access to the taste buds. Fungiform taste buds were removed individually by gentle suction with a large, firepolished pipette (~200 μm diameter), and were plated onto Cell-Tak™-coated microscope slides (Collaborative Biomedical Prod., Bedford, Mass.) fitted with an O-ring which served as a recording chamber. Once plated, cells were perfused continually with Tyrode's or various test solutions. Taste buds isolated in this manner were used for up to 6 hours without any noticeable morphological or physiological decrement.
# (§7) All chemicals were obtained from Sigma Chemical Corporation (St. Louis, Mo.) unless otherwise indicated. Normal extracellular solution (Tyrode's) contained (in mM): NaCl, 140; KCl, 5; CaCl2, 1; MgCl2, 1; HEPES (N-[2-hydroxyethyl] piperazine-N'-[2-ethanesulfonic acid), 10; glucose, 10; and sodium pyruvate, 10. The pH was adjusted to 7.40 with NaOH. In Ca^2+ --Mg^2+ free Tyrode's solution, 2 mM BAPTA (1,2-bis(2-aminophenoxy) ethane-N,N,N',N'-tetraacetic acid) (Molecular Probes, Eugene, Oreg.) replaced CaCl2 and MgCl2. Other components were identical to Tyrode's solution. Intracellular (pipette) solution contained (in mM): KCl, 140; CaCl2, 1 [free Ca^2+ was ~10^-8 M]; MgCl2, 2; HEPES, 10; EGTA (ethylene glycol-bis(β-aminoethylether)-N,N,N',N'-tetraacetic acid), 11; and ATP, 3. The pH was adjusted to 7.20 with KOH.
# (§8) Free fatty acids (FFAs) were stored below -20° C. until the day of use, when they were dissolved in warm ethanol and diluted to final working concentrations in Tyrode's solution. Final ethanol concentrations in Tyrode's were below 0.1%; the ethanol had no effect on ionic currents in any TRCs. All FFAs were applied by bath perfusion. In some experiments, FFA-containing solutions were bubbled continuously with nitrogen to retard oxygenation. […]
# [3] = system: delayed rectifying K^+ channels; assay: patch clamp, delayed rectifying K^+ channels of TRCs isolated from Osborne-Mendel rats; assay type: cell-based
# Source text: (§9) To determine if there is a link between the sensitivity of TRCs to PUFAs and dietary fat preferences, the PUFA-sensitivities of TRCs using patch clamp techniques were compared on TRCs isolated from Osborne-Mendel ("O-M") rats and S5B/P1 rats, strains with different dietary preferences. O-M rats prefer fat over carbohydrate, while S5B/P1 rats prefer carbohydrate over fat. […] Rats whose TRCs were more sensitive to the fatty acids have a preference for a lower-fat diet; while rats whose TRCs are less sensitive to fatty acids seek diets that are higher in fat.
# [4] = system: inwardly rectifying K^+ channels (Kir); assay: whole-cell patch clamp, inwardly rectifying K^+ channels (Kir) at -130 mV in rat fungiform taste receptor cells; assay type: cell-based, rat (Sprague-Dawley)
# Source text: as §4, §5, §6, §7, §8
# [5] = system: delayed rectifying K^+ channels; assay: patch clamp, delayed rectifying K^+ channels of TRCs isolated from S5B/P1 rats; assay type: cell-based
# Source text: as §9
# cardiac atrial cells = conditions: applied extracellularly; cited from earlier work
# [6] = system: ATP-inhibitable K channel (KATP); assay: whole-cell patch clamp, ATP-inhibitable K channel (KATP) residual current in rat fungiform taste receptor cells; assay type: cell-based, rat (Sprague-Dawley); conditions: glyburide 20 μM; in presence of arachidonic acid and 4-AP; n=6 cells
# Experimental: as §1, §2, §3
smiles,measurement,setting,value
Nc1ccncc1 [4-aminopyridine],inhibition of the rapidly inactivating current (IA),[1],reversibly and completely inhibited
CCCCC/C=C\C/C=C\C/C=C\C/C=C\CCCC(=O)O [arachidonic acid],"effect on outward K^+ currents, specificity test","[2]; 10 μM, >10 min (maximal effect), significance by paired t test",significantly reduced outward K^+ currents
same,inhibition of the voltage-activated steady-state outward K^+ current,"[2]; 10 μM, +40 mV, n=44 cells",83%
same,mean time constant (ton) for the onset of effects,"[2]; 10 μM, n=18 cells",4.37 ± 1.8 min
same,inhibition of delayed rectifier K^+ channel in presence of NDGA and indomethacin,"[2]; NDGA 10 μM and indomethacin 200 μM, n=5 cells",inhibited the delayed rectifier K^+ channel
same,effect on outward K^+ currents / delayed rectifier K^+ channel (in words),"[2]; arachidonic acid 0.25-100 μM, extracellular, all cells examined","reversible, slowly developing inhibition of the delayed rectifier K^+ channel"
same,time to reach maximum effect on outward K^+ currents,[2]; extracellular arachidonic acid,10 to 15 min
same,recovery time constant (toff) from inhibition,[2]; n=18 cells,10.92 ± 5.9 min
same,time constant for inactivation of the outward K^+ current,"[2]; presence of 10 μM arachidonic acid, control 457±103 msec, n=20",42 ± 26 ms
same,Ki,[2]; read-out: inhibition constant (Ki) for the delayed rectifier K^+ channel,1.02 µM
same,stimulation of taste receptor cells,[2]; summary statement,stimulate taste receptor cells
same,"inhibition of the delayed rectifying K^+ channels, O-M rats",[3],inhibited the delayed rectifying K^+ channels in a concentration-dependent manner
same,"change of Kir over control levels, in words","[4]; 10 μM arachidonic acid, approximately 30% of cells",approximately doubling Kir over control levels
same,Kir compared to control,"[4]; 10 μM, -130 mV, n=16 cells, % of control",191%±19.7
same,share of cells in which Kir was activated,"[4]; 10 μM, subset of cells, of the total",approximately 30%
same,activation of Kir in cells that did not show this current in control,[4]; cells without Kir in control (saline) conditions,not able to activate Kir
same,effect on inward currents in cells without inward rectification,"[4]; potentials more negative than -100 mV, n=37 cells",not significantly affected
same,sensitivity of S5B/P1 TRCs to inhibition compared with O-M TRCs,"[5]; 10 μM, versus TRCs from O-M rats",significantly more sensitive to inhibition
same,"inhibition of the delayed rectifying K^+ channels, S5B/P1 rats",[5]; TRCs from S5B/P1 rats,inhibited the delayed rectifying K^+ channels in a concentration-dependent manner
same,response of cardiac cells,cardiac atrial cells,responded
COc1ccc(Cl)cc1C(=O)NCCc1ccc(S(=O)(=O)NC(=O)NC2CCCCC2)cc1 [glyburide],block of the residual (KATP) current,[6],blocked the residual current
